test system: AMPA receptor; experiment: Suppressing action to calcium influx into nerve cells induced by AMPA; assay type: cell-based; conditions: Fura2-AM, stimulation with 2 μM AMPA, primary culture of rat embryo cerebral cortex nerve cells, 1 μM MK-801
Outline: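 Rat E18 cortical neurons grown on astrocyte feeder layers for 8–10 days or more, with 1 μM MK-801 in the medium. Cells were Fura2-AM-loaded for 1 h, then stimulated with 2 μM AMPA in Tyrode containing 1 μM MK-801. Calcium influx was read as the 340/380 nm excitation fluorescence change.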

Point of comparison: `N#Cc1ccccc1N1N=C(c2ccccn2)CN(c2ccsc2)C1=O` [Example 101, 2-(2-Cyanophenyl)-6-(2-pyridyl)-4-(thiophene-3-yl)-4,5-dihydro-1,2,4-triazin-3 (2H)-one], IC50 100 nM. Against it:
- N#Cc1ccccc1-n1nc2c(c(-c3cccnc3)c1=O)COc1ccccc1-2 [Example 9, 2-(2-Cyanophenyl)-4-(3-pyridyl)-2,3-dihydro-5H-(1)benzopyrano[4,3-c]pyridazin-3-one] — 5-fold lower, 20 nM
- O=C1C(c2ccccc2O)CC(c2ccccn2)=NN1c1ccccc1Br (stereo not shown) [Example 29, 2-(2-Bromophenyl)-4-(2-hydroxyphenyl)-6-(2-pyridyl)-4,5-dihydro-3 (2H)-pyridazinone] — the same, 100 nM
- O=C1N(c2cc(O)ccc2O)CC(c2ccccc2O)=NN1c1ccccc1Br [Example 94, 2-(2-Bromophenyl)-4-(2,5-dihydroxyphenyl)-6-(2-hydroxyphenyl)-4,5-dihydro-1,2,4-triazin-3 (2H)-one] — 9-fold higher, 900 nM
- O=C1N(c2cc(O)ccc2O)CC(c2ccccc2O)=NN1c1ccccc1 [Example 95, 4-(2,5-Dihydroxyphenyl)-6-(2-hydroxyphenyl)-2-phenyl-4,5-dihydro-1,2,4-triazin-3 (2H)-one] — 2-fold lower, 50 nM
- N#Cc1ccccc1N1N=C(c2ccccn2)CN(c2ccccc2O)C1=O [Example 96, 2-(2-Cyanophenyl)-4-(2-hydroxyphenyl)-6-(2-pyridyl)-4,5-dihydro-1,2,4-triazin-3 (2H)-one] — 6-fold higher, 600 nM
- COc1ccccc1C1=NN(c2ccccc2)C(=O)N(c2ccccc2C#N)C1 [Example 98, 4-(2-Cyanophenyl)-6-(2-methoxyphenyl)-2-phenyl-4,5-dihydro-1,2,4-triazin-3 (2H)-one] — 4-fold higher, 400 nM
- COc1ccccc1C1=NN(c2ccccc2C#N)C(=O)N(c2ccccn2)C1 [Example 99, 2-(2-Cyanophenyl)-6-(2-methoxyphenyl)-4-(2-pyridyl)-4,5-dihydro-1,2,4-triazin-3 (2H)-one] — within 1.5-fold, 70 nM
- N#Cc1ccccc1N1CC(c2ccccn2)=NN(c2ccccc2)C1=O [Example 104, 4-(2-Cyanophenyl)-2-phenyl-6-(2-pyridyl)-4,5-dihydro-1,2,4-triazin-3 (2H)-one] — 5-fold higher, 500 nM
- O=C1N(c2ccsc2)CC(c2ccccn2)=NN1c1ccccc1 [Example 105, 2-Phenyl-6-(2-pyridyl)-4-(thiophen-3-yl)-4,5-dihydro-1,2,4-triazin-3 (2H)-one] — 2-fold higher, 200 nM
- O=C1N(c2ccsc2)CC(c2ccccn2)=NN1c1ccccc1Br [Example 106, 2-(2-Bromophenyl)-6-(2-pyridyl)-4-(thiophen-3-yl)-4,5-dihydro-1,2,4-triazin-3 (2H)-one] — the same, 100 nM
- COc1ccc(N2CC(c3ccccn3)=NN(c3ccccc3)C2=O)c(OC)c1 [Example 107, 4-(2,4-Dimethoxyphenyl)-2-phenyl-6-(2-pyridyl)-4,5-dihydro-1,2,4-triazin-3 (2H)-one] — 3-fold higher, 300 nM
- COc1ccccc1C1=NN(c2ccccc2Br)C(=O)N(c2ccsc2)C1 [Example 108, 2-(2-Bromophenyl)-6-(2-methoxyphenyl)-4-(thiophen-3-yl)-4,5-dihydro-1,2,4-triazin-3 (2H)-one] — 40-fold higher, 4000 nM
- O=C1N(c2cccnc2)CC(c2ccccn2)=NN1c1ccccc1 [Example 109, 2-Phenyl-6-(2-pyridyl)-4-(3-pyridyl)-4,5-dihydro-1,2,4-triazin-3 (2H)-one] — 3-fold higher, 300 nM
- O=C1N(c2cccnc2)CC(c2ccccn2)=NN1c1ccccc1Br [Example 110, 2-(2-Bromophenyl)-6-(2-pyridyl)-4-(3-pyridyl)-4,5-dihydro-1,2,4-triazin-3 (2H)-one] — the same, 100 nM
- N#Cc1ccccc1N1CC(c2ccccn2)=NN(c2ccccc2Br)C1=O [Example 111, 2-(2-Bromophenyl)-4-(2-cyanophenyl)-6-(2-pyridyl)-4,5-dihydro-1,2,4-triazin-3 (2H)-one] — 4-fold higher, 400 nM
- O=C1N(c2ccccc2)CC(c2ccccc2)=NN1c1ccccc1Br [Example 112, 2-(2-Bromophenyl)-4,6-diphenyl-4,5-dihydro-1,2,4-triazin-3 (2H)-one] — 3-fold higher, 300 nM
- O=C1N(c2ccccc2Br)CC(c2ccccc2)=NN1c1ccccc1 [Example 113, 4-(2-Bromophenyl)-2,6-diphenyl-4,5-dihydro-1,2,4-triazin-3 (2H)-one] — 71-fold higher, 7100 nM
- COc1ccccc1C1=NN(c2ccccc2)C(=O)N(c2ccccc2Br)C1 [Example 115, 4-(2-Bromophenyl)-6-(2-methoxyphenyl)-2-phenyl-4,5-dihydro-1,2,4-triazin-3 (2H)-one] — 72-fold higher, 7200 nM
- O=C1N(c2ccccn2)CC(c2ccccn2)=NN1c1ccccc1Br [Example 118, 2-(2-Bromophenyl)-6-(2-pyridyl)-4-(2-pyridyl)-4,5-dihydro-1,2,4-triazin-3 (2H)-one] — 3.3-fold lower, 30 nM
- O=C1N(c2ccccc2)CC(c2ncccn2)=NN1c1ccccc1 [Example 119, 2-Phenyl-4-phenyl-6-(2-pyrimidinyl)-4,5-dihydro-1,2,4-triazin-3 (2H)-one] — 43-fold higher, 4300 nM
- O=C1N(c2cccc([N+](=O)[O-])c2)CC(c2ccccn2)=NN1c1ccccc1Br [Example 121, 2-(2-Bromophenyl)-4-(3-nitrophenyl)-6-(2-pyridyl)-4,5-dihydro-1,2,4-triazin-3 (2H)-one] — 4-fold higher, 400 nM
- O=C1N(c2ccc(F)cc2)CC(c2ccccn2)=NN1c1ccccc1Br [Example 122, 2-(2-Bromophenyl)-4-(4-fluorophenyl)-6-(2-pyridyl)-4,5-dihydro-1,2,4-triazin-3 (2H)-one] — 2-fold higher, 200 nM
- O=Cc1cccc(N2CC(c3ccccn3)=NN(c3ccccc3Br)C2=O)c1 [Example 123, 2-(2-Bromophenyl)-4-(3-formylphenyl)-6-(2-pyridyl)-4,5-dihydro-1,2,4-triazin-3 (2H)-one] — 3-fold higher, 300 nM
- Cc1cccc(N2CC(c3ccccn3)=NN(c3ccccc3Br)C2=O)c1 [Example 124, 2-(2-Bromophenyl)-4-(3-tolyl)-6-(2-pyridyl)-4,5-dihydro-1,2,4-triazin-3 (2H)-one] — 2-fold higher, 200 nM
- CSc1ccc(N2CC(c3ccccn3)=NN(c3ccccc3Br)C2=O)cc1 [Example 125, 2-(2-Bromophenyl)-4-(4-thiomethoxyphenyl)-6-(2-pyridyl)-4,5-dihydro-1,2,4-triazin-3 (2H)-one] — 6-fold higher, 600 nM
- N#Cc1ccccc1N1N=C(c2ccccn2)CN(c2cccc([N+](=O)[O-])c2)C1=O [Example 127, 2-(2-Cyanophenyl)-4-(3-nitrophenyl)-6-(2-pyridyl)-4,5-dihydro-1,2,4-triazin-3 (2H)-one] — 4-fold higher, 400 nM
- N#Cc1ccccc1N1N=C(c2ccccn2)CN(c2cccc(N)c2)C1=O [Example 128, 2-(2-Cyanophenyl)-4-(3-aminophenyl)-6-(2-pyridyl)-4,5-dihydro-1,2,4-triazin-3 (2H)-one] — the same, 100 nM
- O=C1N(c2ccccc2)CC(c2ncccn2)=NN1c1ccccc1Cl [Example 129, 2-(2-Chlorophenyl)-4-phenyl-6-(2-pyrimidinyl)-4,5-dihydro-1,2,4-triazin-3 (2H)-one.] — 30-fold higher, 3000 nM

test system: convulsion induced by AMPA; experiment: Anticonvulsant action induced by AMPA; assay type: in vivo, mice of ddy strain; conditions: 25 mg/kg orally, mice; AMPA injected into lateral ventricle 30 minutes or 1 hour after administration
Procedure: Anticonvulsant Action Induced by AMPA A test compound was suspended in a 0.5% methyl cellulose solution or in sesame oil and was orally administered (25 mg/kg) to male mice of ddy strain. After 30 minutes or 1 hour from the oral administration, AMPA was continuously injected ([…]/5 μl/minute/mouse) into lateral ventricle to induce the convulsions. The effect was judged by a time-extending action until the convulsion takes place by a continuous injection of AMPA.

In the case of `N#Cc1ccccc1-n1nc2c(c(-c3cccnc3)c1=O)COc1ccccc1-2` [Example 9, 2-(2-Cyanophenyl)-4-(3-pyridyl)-2,3-dihydro-5H-(1)benzopyrano[4,3-c]pyridazin-3-one], the “anticonvulsant action (time-extending action until the convulsion takes place)” value is reported as “significantly inhibited the convulsion induced by AMPA”.
For `O=C1C(c2ccccc2O)CC(c2ccccn2)=NN1c1ccccc1Br` (stereo not shown) [Example 29, 2-(2-Bromophenyl)-4-(2-hydroxyphenyl)-6-(2-pyridyl)-4,5-dihydro-3 (2H)-pyridazinone], the “anticonvulsant action (time-extending action until the convulsion takes place)” value was “significantly inhibited the convulsion induced by AMPA”.

From patent US20030225081A1, “Pyridazinones and triazinones and medicinal use thereof” (priority 2000, published 2003)
